Experimental data published in patent US20130281465A1, “PYRAZOLE DERIVATIVE” (TAISHO PHARMACEUTICAL CO., LTD., priority 2010, published 2013).

Tests used:
[1] = molecular target: T1, orexin type 2 receptor (hOX2R) (Homo sapiens, UniProt O43614); experiment: Orexin receptor antagonistic activity, intracellular Ca2+ fluorescence (FDSS) in CHO cells expressing hOX2R; assay type: cell-based; settings: CHO cells forced to express hOX2R; orexin-A analogue peptide ligand 3 nM; Fluo-4 maximum fluorescence; read-out: IC50 value OX2R
T1 construct: expressed in transfected cells; host or cells: Chinese hamster ovary (CHO) cells
T1 sequence (O43614 1-444): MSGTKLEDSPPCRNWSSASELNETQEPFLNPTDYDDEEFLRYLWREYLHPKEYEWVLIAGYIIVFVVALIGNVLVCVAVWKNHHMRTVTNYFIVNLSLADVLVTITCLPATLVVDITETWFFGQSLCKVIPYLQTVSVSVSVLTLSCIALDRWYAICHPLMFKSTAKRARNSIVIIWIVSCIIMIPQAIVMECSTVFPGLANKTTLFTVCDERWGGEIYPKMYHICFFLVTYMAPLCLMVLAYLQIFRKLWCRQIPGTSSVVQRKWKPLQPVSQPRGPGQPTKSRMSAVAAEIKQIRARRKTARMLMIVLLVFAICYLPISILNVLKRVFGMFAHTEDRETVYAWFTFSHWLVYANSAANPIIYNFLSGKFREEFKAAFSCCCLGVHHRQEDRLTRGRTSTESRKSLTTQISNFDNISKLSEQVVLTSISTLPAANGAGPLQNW
Method: (§1) The antagonistic activity of each test compound against human orexin type 1 receptor (hOX1R) and orexin type 2 receptor (hOX2R) was performed as described in the literature with a modification (Toshikatsu Okumura et al., Biochemical and Biophysical Research Communications 280, 976-981, 2001). Chinese hamster ovary (CHO) cells forced to express hOX1R or hOX2R were seeded at 20,000 cells/well on a 96 well Black clear bottom plates (Nunc) and cultured for 16 hours under conditions of 37° C. and 5% CO2 using a Ham's F-12 medium containing 0.1 mM MEM non-essential amino acids, 0.5 mg/ml G418, and 10% fetal bovine serum (all from Invitrogen Corp.). After removal of the medium, 100 μL of the assay buffer (25 mM HEPES (Dojindo Laboratories), Hanks' balanced salt solution (Invitrogen Corp.), 0.1% bovine serum albumin, 2.5 mM probenecid, 200 μg/ml Amaranth (all from Sigma-Aldrich Corp.), pH 7.4) containing 0.5 μM Fluo-4AM ester (Dojindo Laboratories) was added thereto, and the cells were incubated for 60 minutes under conditions of 37° C. and 5% CO2. After removal of the buffer solution for assay containing Fluo-4AM ester, the test compound was dissolved at a concentration of 10 mM in dimethyl sulfoxide and diluted with the assay buffer, and 150 μL of the diluted solution was then added to each wells, which were then incubated for 30 minutes.
(§2) A peptide (Pyr-[…]11e-Leu-Thr-Leu-NH2; Peptide Institute, Inc.) substituted 2 amino acids of human orexin-A was diluted with the assay buffer to 300 pM (final concentration for hOX1R) or 3 nM (final concentration for hOX2R). 50 μL of this ligand solution was added thereto to start reaction. During the reaction, the fluorescence value of each well was measured every one second for 3 minutes using Functional Drug Screening System (FDSS; manufactured by Hamamatsu Photonics K.K.), and antagonistic activity was determined with the maximum fluorescence value as an index for intracellular Ca^2+ concentration. The antagonistic activity of the test compound was calculated with the fluorescence value of a well supplemented with only a dilution buffer solution as 100% and the fluorescence value of a well supplemented with a buffer solution containing neither the ligand nor the compound as 0%, and determined in terms of 50% inhibitory concentration (IC50 value) from fluorescence values derived from the test compound added at varying concentrations.

[2] = molecular target: T2, human orexin type 1 receptor (hOX1R) (Homo sapiens, UniProt O43613); experiment: Orexin receptor antagonistic activity, intracellular Ca2+ fluorescence (FDSS) in CHO cells expressing hOX1R; assay type: cell-based; settings: CHO cells forced to express hOX1R; orexin-A analogue peptide ligand 300 pM; Fluo-4 maximum fluorescence; read-out: IC50 value OX1R
T2 construct: expressed in transfected cells; host or cells: Chinese hamster ovary (CHO) cells
T2 sequence (O43613 1-425): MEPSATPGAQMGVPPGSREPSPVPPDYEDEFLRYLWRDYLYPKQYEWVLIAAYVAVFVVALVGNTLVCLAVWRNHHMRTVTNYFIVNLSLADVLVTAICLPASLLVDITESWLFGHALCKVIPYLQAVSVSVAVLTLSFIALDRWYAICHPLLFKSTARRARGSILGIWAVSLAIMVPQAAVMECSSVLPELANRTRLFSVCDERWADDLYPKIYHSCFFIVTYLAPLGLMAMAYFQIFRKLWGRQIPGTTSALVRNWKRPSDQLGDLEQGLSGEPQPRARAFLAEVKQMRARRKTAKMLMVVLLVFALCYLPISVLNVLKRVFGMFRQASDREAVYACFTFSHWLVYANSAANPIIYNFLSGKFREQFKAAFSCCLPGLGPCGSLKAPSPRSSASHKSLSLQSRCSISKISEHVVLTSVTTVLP
Method: as §1, §2

| IC50 [1] | IC50 [2] | SMILES |
| --- | --- | --- |
| 0.0013 µM | 0.0011 µM | CCN(CCn1ccc(-c2cccc(C(F)(F)F)n2)n1)C(=O)c1cc(C)ccc1-n1nccn1 [Example 52, N-ethyl-5-methyl-2-(2H-1,2,3-triaz ° 1-2-yl)-N-(2-{3-[6-(trifluoromethyl)pyridin-2-yl]-1H-pyrazol-1-yl}ethyl)benzamide] |
| 0.0172 µM | 0.0105 µM | CCN(CCn1cc(-c2ccccn2)cn1)C(=O)c1cc(C)ccc1-n1nccn1 [Example 11, N-ethyl-5-methyl-N-{2-[4-(pyridin-2-yl)-1H-pyrazol-1-yl]ethyl}-2-(2H-1,2,3-triazol-2-yl)benzamide] |
| 0.0056 µM | 0.0019 µM | CCN(CCn1ccc(-c2ccc(F)c(F)c2)n1)C(=O)c1ccccc1-c1ncccn1 [Example 59, N-{2-[3-(3,4-difluorophenyl)-1H-pyrazol-1-yl]ethyl}-N-ethyl-2-(pyrimidin-2-yl)benzamide] |
| 0.004 µM | 0.0012 µM | Cc1ccc(-n2nccn2)c(C(=O)N(CCn2ccc(-c3ccc(F)cc3)n2)CC2CC2)c1 [Example 28, N-(cyclopropylmethyl)-N-{2-[3-(4-fluorophenyl)-1H-pyrazol-1-yl]ethyl}-5-methyl-2-(2H-1,2,3-triazol-2-yl)benzamide] |
| 0.214 µM | 0.02 µM | CCN(CCn1ccc(-c2ccc(F)cn2)n1)C(=O)c1cc(OC)ccc1-n1nccn1 [Example 50, N-ethyl-N-{2-[3-(5-fluoropyridin-2-yl)-1H-pyrazol-1-yl]ethyl}-5-methoxy-2-(2H-1,2,3-triazol-2-yl)benzamide] |
| 0.0037 µM | 0.0014 µM | CCN(CCn1ccc(-c2ccc(F)cn2)n1)C(=O)c1cc(C)ccc1-c1ncccn1 [Example 26, N-ethyl-N-{2-[3-(5-fluoropyridin-2-yl)-1H-pyrazol-1-yl]ethyl}-5-methyl-2-(pyrimidin-2-yl)benzamide] |
| 0.0076 µM | 0.0005 µM | CCN(CCn1ccc(-c2ccc(F)cn2)n1)C(=O)c1cc(F)ccc1-c1ncccn1 [Example 41, N-ethyl-5-fluoro-N-{2-[3-(5-fluoropyridin-2-yl)-1H-pyrazol-1-yl]ethyl}-2-(pyrimidin-2-yl)benzamide] |
| 0.0066 µM | 0.009 µM | CCN(CCn1ccc(-c2ccc(F)cn2)n1)C(=O)c1ccccc1-n1nccn1 [Example 32, N-ethyl-N-{2-[3-(5-fluoropyridin-2-yl)-1H-pyrazol-1-yl]ethyl}-2-(2H-1,2,3-triazol-2-yl)benzamide] |
| 0.0387 µM | 0.102 µM | Cc1ccc(-n2nccn2)c(C(=O)N(CCn2cc(-c3ccc(F)cn3)cn2)CC2CC2)c1 [Example 5, N-(cyclopropylmethyl)-N-{2-[4-(5-fluoropyridin-2-yl)-1H-pyrazol-1-yl]ethyl}-5-methyl-2-(2H-1,2,3-triazol-2-yl)benzamide] |
| 0.0488 µM | 0.0071 µM | CCN(CCn1ccc(-c2ccc(F)cn2)n1)C(=O)c1ccc(F)cc1-c1ncccn1 [Example 49, N-ethyl-4-fluoro-N-{2-[3-(5-fluoropyridin-2-yl)-1H-pyrazol-1-yl]ethyl}-2-(pyrimidin-2-yl)benzamide] |
| 0.0122 µM | 0.0072 µM | CCN(CCn1ccc(-c2ccc(F)cn2)n1)C(=O)c1cc(F)ccc1-n1nccn1 [Example 24, N-ethyl-N-{2-[3-(5-fluoropyridin-2-yl)-1H-pyrazol-1-yl]ethyl}-5-fluoro-2-(2H-1,2,3-triazol-2-yl)benzamide] |
| 0.0589 µM | 0.0306 µM | CCN(CCn1ccc(-c2ccc(F)cn2)n1)C(=O)c1cc(C)ccc1-c1cccnc1 [Example 36, N-ethyl-N-{2-[3-(5-fluoropyridin-2-yl)-1H-pyrazol-1-yl]ethyl}-5-methyl-2-(pyridin-3-yl)benzamide] |
| 0.412 µM | 0.597 µM | Cc1ccc(-n2nccn2)c(C(=O)N(CCn2cc(-c3ccc(F)cn3)cn2)C(C)C)c1 [Example 14, N-{2-[4-(5-fluoropyridin-2-yl)-1H-pyrazol-1-yl]ethyl}-5-methyl-N-(propan-2-yl)-2-(2H-1,2,3-triazol-2-yl)benzamide] |
| 0.0325 µM | 0.0105 µM | Cc1ccc(-n2nccn2)c(C(=O)N(CCn2ccc(-c3ccc(F)cn3)n2)CC(F)F)c1 [Example 22, N-(2,2-difluoroethyl)-N-{2-[3-(5-fluoropyridin-2-yl)-1H-pyrazol-1-yl]ethyl}-5-methyl-2-(2H-1,2,3-triazol-2-yl)benzamide] |
| 0.0473 µM | 0.0179 µM | Cc1ccc(-n2nccn2)c(C(=O)N(C)CCn2cc(-c3ccc(F)cn3)cn2)c1 [Example 2, N-{2-[4-(5-fluoropyridin-2-yl)-1H-pyrazol-1-yl]ethyl}-N,5-dimethyl-2-(2H-1,2,3-triazol-2-yl)benzamide] |
| 0.598 µM | 0.115 µM | Cc1ccc(-n2nccn2)c(C(=O)NCCn2ccc(-c3ccc(F)cn3)n2)c1 [Example 16, N-{2-[3-(5-fluoropyridin-2-yl)-1H-pyrazol-1-yl]ethyl}-5-methyl-2-(2H-1,2,3-triazol-2-yl)benzamide] |
| 0.0103 µM | 0.0055 µM | CCN(CCn1ccc(-c2ccc(F)cn2)n1)C(=O)c1cccc(F)c1-n1nccn1 [Example 48, N-ethyl-3-fluoro-N-{2-[3-(5-fluoropyridin-2-yl)-1H-pyrazol-1-yl]ethyl}-2-(2H-1,2,3-triazol-2-yl)benzamide] |
| 0.0022 µM | 0.0065 µM | CCN(CCn1ccc(-c2ccc(F)cn2)n1)C(=O)c1cc(Cl)ccc1-n1nccn1 [Example 33, 5-Chloro-N-ethyl-N-{2-[3-(5-fluoropyridin-2-yl)-1H-pyrazol-1-yl]ethyl}-2-(2H-1,2,3-triazol-2-yl)benzamide] |
| 1.13 µM | 0.239 µM | CCN(CCn1ccc(-c2cc(C(F)(F)F)ccn2)n1)C(=O)c1cc(F)ccc1-c1ncccn1 [Example 61, N-ethyl-5-fluoro-2-(pyrimidin-2-yl)-N-(2-{3-[4-(trifluoromethyl)pyridin-2-yl]-1H-pyrazol-1-yl}ethyl)benzamide] |
| 0.0026 µM | 0.0501 µM | Cc1ccc(-n2nccn2)c(C(=O)N(CCn2cc(-c3ccc(F)cc3)cn2)CC2CC2)c1 [Example 6, N-(cyclopropylmethyl)-N-{2-[4-(4-fluorophenyl)-1H-pyrazol-1-yl]ethyl}-5-methyl-2-(2H-1,2,3-triazol-2-yl)benzamide] |
| 0.133 µM | 0.076 µM | CN(CCn1ccc(-c2ccc(F)cn2)n1)C(=O)c1cc(F)ccc1-n1nccn1 [Example 23-2, N-methyl-N-{2-[3-(5-fluoropyridin-2-yl)-1H-pyrazol-1-yl]ethyl}-5-fluoro-2-(2H-1,2,3-triazol-2-yl)benzamide] |
| 0.0192 µM | 0.002 µM | CCN(CCn1ccc(-c2ccc(F)cc2)n1)C(=O)c1cc(F)ccc1-c1ncccn1 [Example 54, N-ethyl-5-fluoro-N-{2-[3-(4-fluorophenyl)-1H-pyrazol-1-yl]ethyl}-2-(pyrimidin-2-yl)benzamide] |
| 0.0469 µM | 0.0387 µM | CCN(CCn1ccc(-c2ccc(F)cn2)n1)C(=O)c1c(F)cccc1-n1nccn1 [Example 45, N-ethyl-2-fluoro-N-{2-[3-(5-fluoropyridin-2-yl)-1H-pyrazol-1-yl]ethyl}-6-(2H-1,2,3-triazol-2-yl)benzamide] |
